Like-named read-outs stand apart in the source and are kept apart here. Values belong to the compound of their own block, whether it stands above or below them.
Tests used:
Assay type in all cases: cell-based
H1650 = experiment: Cell growth inhibition (CellTiter-Glo), NSCLC line H1650; conditions: H1650 non-small cell lung cancer cell line, 4 days
Description: (§1) Cell growth inhibitory activity of representative BET bromodomain degraders in representative non-small cell lung cancer cell lines was determined using the CellTiter-Glo® Luminescent Cell Viability Assay. Cells were seeded in 384-well white opaque cell culture plates at a density of 2,000 cells/well with serially diluted compounds and incubated at 37° C. in an atmosphere of 95% air and 5% CO2 for 4 days. Cell viability was determined using the CellTiter-Glo® Luminescent Cell Viability Assay Kit (Promega, Madison, Wis.) according to the manufacture's instruction. Briefly, a volume of CellTiter-Glo® Reagent equal to the volume of cell culture medium was added to each well, and then the plates were incubated at room temperature for 10-20 minutes. The luminescent signal was measured using a Tecan Infinite M1000 multimode microplate reader (Tecan, Morrisville, N.C.). The half maximal inhibitory concentration (IC50) was calculated using the GraphPad Prism 5 software (GraphPad Software, La Jolla, Calif.). Cpd. A is a BET bromodomain inhibitor, see U.S. Appl.

H520 = experiment: Cell growth inhibition (CellTiter-Glo), NSCLC line H520; conditions: H520 non-small cell lung cancer cell line, 4 days
Description: as §1

SKCO-1 = experiment: Cell growth inhibition (CellTiter-Glo), colon cancer line SKCO-1; conditions: SKCO-1 colon cancer cell line
Description: as §1, with “Appl. No. 62/121,637, having the following structure:” for “Appl.”
(§2) Cell growth inhibitory activity of representative BET bromodomain degraders in representative colon cancer cell lines, see Table 7, was determined as described in Example 17.

A549 = experiment: Cell growth inhibition (CellTiter-Glo), NSCLC line A549; conditions: A549 non-small cell lung cancer cell line, 4 days
Description: as §1

LS513 = experiment: Cell growth inhibition (CellTiter-Glo), colon cancer line LS513
Description: as §1, with “Appl. No. 62/121,637, having the following structure:” for “Appl.”
as §2

SW480 = experiment: Cell growth inhibition (CellTiter-Glo), colon cancer line SW480
Description: as §1, with “Appl. No. 62/121,637, having the following structure:” for “Appl.”
as §2

SW620 = experiment: Cell growth inhibition (CellTiter-Glo), colon cancer line SW620
Description: as §1, with “Appl. No. 62/121,637, having the following structure:” for “Appl.”
as §2

RKO = experiment: Cell growth inhibition (CellTiter-Glo), colon cancer line RKO
Description: as §1, with “Appl. No. 62/121,637, having the following structure:” for “Appl.”
as §2

H1792 = experiment: Cell growth inhibition (CellTiter-Glo), NSCLC line H1792; conditions: H1792 non-small cell lung cancer cell line, 4 days
Description: as §1

SW48 = experiment: Cell growth inhibition (CellTiter-Glo), colon cancer line SW48
Description: as §1, with “Appl. No. 62/121,637, having the following structure:” for “Appl.”
as §2

SW948 = experiment: Cell growth inhibition (CellTiter-Glo), colon cancer line SW948
Description: as §1, with “Appl. No. 62/121,637, having the following structure:” for “Appl.”
as §2

HCT116 = experiment: Cell growth inhibition (CellTiter-Glo), colon cancer line HCT116
Description: as §1, with “Appl. No. 62/121,637, having the following structure:” for “Appl.”
as §2

CALU-1 = experiment: Cell growth inhibition (CellTiter-Glo), NSCLC line CALU-1; conditions: CALU-1 non-small cell lung cancer cell line, 4 days
Description: as §1

LS1034 = experiment: Cell growth inhibition (CellTiter-Glo), colon cancer line LS1034
Description: as §1, with “Appl. No. 62/121,637, having the following structure:” for “Appl.”
as §2

H2009 = experiment: Cell growth inhibition (CellTiter-Glo), NSCLC line H2009; conditions: H2009 non-small cell lung cancer cell line, 4 days
Description: as §1

H1648 = experiment: Cell growth inhibition (CellTiter-Glo), NSCLC line H1648; conditions: H1648 non-small cell lung cancer cell line, 4 days
Description: as §1

HCC1954 = experiment: Cell growth inhibition (CellTiter-Glo), breast cancer line HCC1954; conditions: 4 days
Description: (§3) Cell growth inhibitory activity of representative BET bromodomain degraders in representative breast cancer cell lines was determined using the CellTiter-Glo® Luminescent Cell Viability Assay. SUM-52 and SUM-159 cell lines were established at the University of Michigan Comprehensive Cancer Center. All the other breast cancer cell lines were obtained from the ATCC (Manassas, Va.). Cells were seeded in 384-well cell culture plates at a density of 1,000-2,500 cells/well with serially diluted compounds and incubated at 37° C. in an atmosphere of 95% air and 5% CO2 for 4 days. Cell viability was determined using the CellTiter-Glo® Luminescent Cell Viability Assay Kit (Promega, Madison, Wis.) according to the manufacture's instruction. Briefly, a volume of CellTiter-Glo® Reagent equal to the volume of cell culture medium was added to each well, and then the plates were incubated at room temperature for 20-60 minutes. The luminescent signal was measured using a Tecan Infinite M1000 multimode microplate reader (Tecan, Morrisville, N.C.). The half maximal inhibitory concentration (IC50) was calculated using the GraphPad Prism 5 software (GraphPad Software, La Jolla, Calif.). “Thd” is thalidomide.

HCC38 = experiment: Cell growth inhibition (CellTiter-Glo), breast cancer line HCC38; conditions: 4 days
Description: as §3

HBL-100 = experiment: Cell growth inhibition (CellTiter-Glo), breast cancer line HBL-100; conditions: HBL-100 breast cancer cell line, 4 days
Description: as §3

SUM-159 = experiment: Cell growth inhibition (CellTiter-Glo), breast cancer line SUM-159; conditions: SUM-159 breast cancer cell line, 4 days
Description: as §3

MDA-MB-468 = experiment: Cell growth inhibition (CellTiter-Glo), breast cancer line MDA-MB-468; conditions: MDA-MB-468 breast cancer cell line, 4 days
Description: as §3

SUM-52 = experiment: Cell growth inhibition (CellTiter-Glo), breast cancer line SUM-52; conditions: SUM-52 breast cancer cell line, 4 days
Description: as §3

BT-20 = experiment: Cell growth inhibition (CellTiter-Glo), breast cancer line BT-20; conditions: BT-20 breast cancer cell line, 4 days
Description: as §3

IC50 (H1650; Homo sapiens, NCI-H1650, 96 h): 8 nM
IC50 (H520; Homo sapiens, NCI-H520, 96 h): 11 nM
IC50 (SKCO-1; Homo sapiens, SK-CO-1): 23 ± 10 nM
IC50 (A549; Homo sapiens, 96 h): 157 nM
IC50 (LS513; Homo sapiens, LS-513): 185 ± 60 nM
IC50 (SW480; Homo sapiens): 247 ± 60 nM
IC50 (SW620; Homo sapiens, SW-620): 1040 ± 1040 nM
IC50 (RKO; Homo sapiens): 241 ± 27 nM
IC50 (H1792; Homo sapiens, NCI-H1792, 96 h): 151 nM
IC50 (SW48; Homo sapiens): 8 nM
IC50 (SW948; Homo sapiens): 1000 ± 1070 nM
IC50 (HCT116; Homo sapiens, HCT-116): 585 ± 70 nM
IC50 (CALU-1; Homo sapiens, 96 h): 9 nM
IC50 (LS1034; Homo sapiens, LS-1034): 368 ± 170 nM
IC50 (H2009; Homo sapiens, NCI-H2009, 96 h): 34 nM
IC50 (H1648; Homo sapiens, NCI-H1648, 96 h): 22 nM
Structure (SMILES): CCn1nc(C2CC2)cc1Nc1nc(C(=O)NCCCCNc2cccc3c2C(=O)N(C2CCC(=O)NC2=O)C3=O)nc2[nH]c3cc(-c4c(C)noc4C)c(OC)cc3c12 (stereo not shown) [Cpd. No. 9]

IC50 (H1650): 2300 nM
IC50 (HCC1954): 3760 nM
IC50 (H520): 4200 nM
IC50 (SKCO-1): > 5000 nM
IC50 (A549): > 5000 nM
IC50 (LS513): > 5000 nM
IC50 (HCC38): 3700 nM
IC50 (SW480): > 5000 nM
IC50 (HBL-100): > 5000 nM
IC50 (SW620): > 5000 nM
IC50 (RKO): > 5000 nM
IC50 (SUM-159): > 5000 nM
IC50 (MDA-MB-468): 1390 nM
IC50 (H1792): > 5000 nM
IC50 (SUM-52): > 5000 nM
IC50 (SW48): 2780 nM
IC50 (SW948): > 5000 nM
IC50 (BT-20): > 5000 nM
IC50 (HCT116): > 5000 nM
IC50 (CALU-1): 3100 nM
IC50 (LS1034): > 5000 nM
IC50 (H2009): > 5000 nM
IC50 (H1648): > 5000 nM
Structure (SMILES): Cc1sc2c(c1C)C(c1ccc(Cl)cc1)=N[C@@H](CC(=O)NCCCCNC(=O)COc1cccc3c1C(=O)N(C1CCC(=O)NC1=O)C3=O)c1nnc(C)n1-2 (stereo partly shown) [dBET1, reference compound]

Structure (SMILES): CCn1nc(C2CC2)cc1Nc1nc(COC)nc2[nH]c3cc(-c4c(C)noc4C)c(OC)cc3c12 [Cpd. A, reference compound]
IC50 (H1650; Homo sapiens, NCI-H1650, 96 h): 430 nM
IC50 (HCC1954; Homo sapiens, 96 h): 1620 nM
IC50 (H520; Homo sapiens, NCI-H520, 96 h): 280 nM
IC50 (SKCO-1; Homo sapiens, SK-CO-1): 1080 ± 240 nM
IC50 (A549; Homo sapiens, 96 h): 20 nM
IC50 (LS513; Homo sapiens, LS-513): 915 ± 670 nM
IC50 (HCC38; Homo sapiens, 96 h): 60 nM
IC50 (SW480; Homo sapiens): 567 ± 10 nM
IC50 (HBL-100; Homo sapiens, 96 h): 100 nM
IC50 (SW620; Homo sapiens, SW-620): > 2500 nM
IC50 (RKO; Homo sapiens): 272 ± 235 nM
IC50 (SUM-159; SUM159, 96 h): 510 nM
IC50 (MDA-MB-468; Homo sapiens, 96 h): 510 nM
IC50 (H1792; Homo sapiens, NCI-H1792, 96 h): 130 nM
IC50 (SUM-52; SUM52, 96 h): 390 nM
IC50 (SW48; Homo sapiens): 45.7 nM
IC50 (SW948; Homo sapiens): > 2500 nM
IC50 (BT-20; Homo sapiens, 96 h): 2410 nM
IC50 (HCT116; Homo sapiens, HCT-116): 1160 ± 179 nM
IC50 (CALU-1; Homo sapiens, 96 h): 2520 nM
IC50 (LS1034; Homo sapiens, LS-1034): 455 ± 430 nM
IC50 (H2009; Homo sapiens, NCI-H2009, 96 h): 170 nM
IC50 (H1648; Homo sapiens, NCI-H1648, 96 h): 140 nM

Structure (SMILES): CCn1nc(C2CC2)cc1Nc1nc(C(=O)NCCCOCCOCCOCCCNc2cccc3c2C(=O)N(C2CCC(=O)NC2=O)C3=O)nc2[nH]c3cc(-c4c(C)noc4C)c(OC)cc3c12 (stereo not shown) [Cpd. No. 4]
IC50 (H1650; Homo sapiens, NCI-H1650, 96 h): 4 nM
IC50 (HCC1954; Homo sapiens, 96 h): 4 nM
IC50 (H520; Homo sapiens, NCI-H520, 96 h): 3 nM
IC50 (SKCO-1; Homo sapiens, SK-CO-1): 8 ± 4 nM
IC50 (A549; Homo sapiens, 96 h): 119 nM
IC50 (LS513; Homo sapiens, LS-513): 70 ± 20 nM
IC50 (HCC38; Homo sapiens, 96 h): 4 nM
IC50 (SW480; Homo sapiens): 37 ± 10 nM
IC50 (HBL-100; Homo sapiens, 96 h): 4 nM
IC50 (SW620; Homo sapiens, SW-620): 38 ± 5 nM
IC50 (RKO; Homo sapiens): 46 ± 1 nM
IC50 (SUM-159; SUM159, 96 h): 166 nM
IC50 (MDA-MB-468; Homo sapiens, 96 h): 2 nM
IC50 (H1792; Homo sapiens, NCI-H1792, 96 h): 48 nM
IC50 (SUM-52; SUM52, 96 h): 8 nM
IC50 (SW48; Homo sapiens): 6 nM
IC50 (SW948; Homo sapiens): 197 ± 160 nM
IC50 (BT-20; Homo sapiens, 96 h): 25 nM
IC50 (HCT116; Homo sapiens, HCT-116): 130 ± 30 nM
IC50 (CALU-1; Homo sapiens, 96 h): 2 nM
IC50 (LS1034; Homo sapiens, LS-1034): 97 ± 20 nM
IC50 (H2009; Homo sapiens, NCI-H2009, 96 h): 16 nM
IC50 (H1648; Homo sapiens, NCI-H1648, 96 h): 5 nM

Source: US10633386B2, “BET protein degraders” (THE REGENTS OF THE UNIVERSITY OF MICHIGAN, priority 2016, dated 2020)
